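Briefly, cells in 96-well plates were exposed to five compound concentrations for 48 h, and endpoints were estimated by linear interpolation. Here, GI50 denotes the concentration required for 50% inhibition of growth.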 Calls of active or inactive are those of the source. No stated cut-off is given here; in the data, active = GI50 up to about 1.1 µM and inactive = higher.
Tests used:
Assay in all cases: DTP human tumour cell line panel, 48 h
EKVX = test system: EKVX
CCRF-CEM = test system: CCRF-CEM
TK-10 = test system: TK-10
SNB-75 = test system: SNB-75
MDA-N = test system: MDA-N
COLO 205 = test system: COLO 205
HOP-92 = test system: HOP-92
NCI-H23 = test system: NCI-H23
A498 = test system: A498
OVCAR-8 = test system: OVCAR-8
SK-MEL-28 = test system: SK-MEL-28
UACC-62 = test system: UACC-62
NCI-H226 = test system: NCI-H226
SW-620 = test system: SW-620
Hs-578T = test system: Hs-578T
A549 = test system: A549
SK-OV-3 = test system: SK-OV-3
BT-549 = test system: BT-549
HOP-62 = test system: HOP-62
786-0 = test system: 786-0
MDA-MB-231 = test system: MDA-MB-231
OVCAR-4 = test system: OVCAR-4
DU-145 = test system: DU-145
ACHN = test system: ACHN
NCI-H522 = test system: NCI-H522
UACC-257 = test system: UACC-257
NCI-H460 = test system: NCI-H460
IGROV-1 = test system: IGROV-1
MDA-MB-435 = test system: MDA-MB-435
HCC 2998 = test system: HCC 2998
SN12C = test system: SN12C
UO-31 = test system: UO-31
HT-29 = test system: HT-29
T47D = test system: T47D
MCF7 = test system: MCF7
SF-295 = test system: SF-295
RXF 393 = test system: RXF 393
K562 = test system: K562
OVCAR-3 = test system: OVCAR-3
NCI/ADR-RES = test system: NCI/ADR-RES
KM12 = test system: KM12
M14 = test system: M14
LOX IMVI = test system: LOX IMVI
CAKI-1 = test system: CAKI-1
SF-268 = test system: SF-268
HCT-116 = test system: HCT-116
Malme-3M = test system: Malme-3M
OVCAR-5 = test system: OVCAR-5
HCT-15 = test system: HCT-15
SK-MEL-5 = test system: SK-MEL-5
MOLT-4 = test system: MOLT-4
SNB-19 = test system: SNB-19
SK-MEL-2 = test system: SK-MEL-2
SR = test system: SR
PC-3 = test system: PC-3
HL-60 = test system: HL-60
U-251 = test system: U-251
RPMI-8226 = test system: RPMI-8226
SF-539 = test system: SF-539

## CN1CCN([C@H]2C[C@H]3[C@@H]4CC=C5C[C@@H](O)CC[C@]5(C)[C@H]4CC[C@]3(C)[C@H]2O)CC1
EKVX
  GI50: > 100 µM (inactive)
CCRF-CEM
  GI50: 25 µM (inactive)
TK-10
  GI50: > 100 µM (inactive)
SNB-75
  GI50: > 49.2 µM (inactive)
MDA-N
  GI50: 19 µM (inactive)
COLO 205
  GI50: > 67.8 µM (inactive)
HOP-92
  GI50: > 100 µM (inactive)
NCI-H23
  GI50: > 100 µM (inactive)
A498
  GI50: > 100 µM (inactive)
OVCAR-8
  GI50: > 42.8 µM (inactive)
SK-MEL-28
  GI50: 27.4 µM (inactive)
UACC-62
  GI50: > 44 µM (inactive)
NCI-H226
  GI50: > 100 µM (inactive)
SW-620
  GI50: 20.7 µM (inactive)
Hs-578T
  GI50: > 100 µM (inactive)
A549
  GI50: > 100 µM (inactive)
SK-OV-3
  GI50: > 100 µM (inactive)
BT-549
  GI50: > 81.8 µM (inactive)
HOP-62
  GI50: > 51.9 µM (inactive)
786-0
  GI50: 17.8 µM (inactive)
MDA-MB-231
  GI50: > 48.3 µM (inactive)
OVCAR-4
  GI50: > 41.1 µM (inactive)
DU-145
  GI50: > 100 µM (inactive)
ACHN
  GI50: > 100 µM (inactive)
NCI-H522
  GI50: > 100 µM (inactive)
UACC-257
  GI50: > 49 µM (inactive)
NCI-H460
  GI50: > 42.7 µM (inactive)
IGROV-1
  GI50: > 90.8 µM (inactive)
MDA-MB-435
  GI50: 16.9 µM (inactive)
HCC 2998
  GI50: 44.2 µM (inactive)
SN12C
  GI50: > 100 µM (inactive)
UO-31
  GI50: > 100 µM (inactive)
HT-29
  GI50: 7.29 µM (inactive)
T47D
  GI50: > 47.4 µM (inactive)
MCF7
  GI50: > 45.6 µM (inactive)
SF-295
  GI50: > 78.3 µM (inactive)
RXF 393
  GI50: 16.9 µM (inactive)
K562
  GI50: 19 µM (inactive)
OVCAR-3
  GI50: > 42.1 µM (inactive)
NCI/ADR-RES
  GI50: > 87.7 µM (inactive)
KM12
  GI50: > 53.8 µM (inactive)
M14
  GI50: 17.5 µM (inactive)
LOX IMVI
  GI50: > 43.4 µM (inactive)
CAKI-1
  GI50: > 100 µM (inactive)
SF-268
  GI50: > 41.7 µM (inactive)
HCT-116
  GI50: 30.7 µM (inactive)
Malme-3M
  GI50: > 43.2 µM (inactive)
OVCAR-5
  GI50: > 47.5 µM (inactive)
HCT-15
  GI50: > 42.3 µM
SK-MEL-5
  GI50: 35.5 µM (inactive)
MOLT-4
  GI50: 49.7 µM (inactive)
SNB-19
  GI50: > 45.5 µM (inactive)
SK-MEL-2
  GI50: > 83.9 µM (inactive)
SR
  GI50: 25.8 µM (inactive)
PC-3
  GI50: > 51.2 µM (inactive)
HL-60
  GI50: 16.8 µM (inactive)
U-251
  GI50: 17.1 µM (inactive)
RPMI-8226
  GI50: 23.9 µM (inactive)
SF-539
  GI50: 26.2 µM (inactive)

## CC(C)(C)N(Cc1ccc2c(c1)OCO2)C(=O)/C=C\[S+]([O-])c1ccccc1 (stereo not drawn)
EKVX
  GI50: 7.29 µM (inactive)
CCRF-CEM
  GI50: 0.83 µM (active)
TK-10
  GI50: 4.55 µM (inactive)
SNB-75
  GI50: 2.99 µM (inactive)
MDA-N
  GI50: 2.4 µM (inactive)
COLO 205
  GI50: 3.01 µM (inactive)
HOP-92
  GI50: 2.29 µM (inactive)
NCI-H23
  GI50: 2.27 µM (inactive)
A498
  GI50: 9.48 µM (inactive)
OVCAR-8
  GI50: 2.03 µM (inactive)
SK-MEL-28
  GI50: 7.89 µM (inactive)
UACC-62
  GI50: 3.37 µM (inactive)
NCI-H226
  GI50: 2.74 µM (inactive)
SW-620
  GI50: 2.07 µM (inactive)
Hs-578T
  GI50: 2.33 µM (inactive)
A549
  GI50: 4.6 µM (inactive)
SK-OV-3
  GI50: 3.01 µM (inactive)
BT-549
  GI50: 2.43 µM (inactive)
HOP-62
  GI50: 4.88 µM (inactive)
786-0
  GI50: 2.25 µM (inactive)
MDA-MB-231
  GI50: 2.95 µM (inactive)
OVCAR-4
  GI50: 3.1 µM (inactive)
DU-145
  GI50: 2.73 µM (inactive)
ACHN
  GI50: 3.97 µM (inactive)
NCI-H522
  GI50: 0.516 µM (active)
UACC-257
  GI50: 3.48 µM (inactive)
NCI-H460
  GI50: 4.19 µM (inactive)
IGROV-1
  GI50: 3.21 µM (inactive)
MDA-MB-435
  GI50: 2.12 µM (inactive)
HCC 2998
  GI50: 4.45 µM (inactive)
SN12C
  GI50: 2.63 µM (inactive)
UO-31
  GI50: 2.19 µM (inactive)
HT-29
  GI50: 3.23 µM (inactive)
T47D
  GI50: 2.56 µM (inactive)
MCF7
  GI50: 2.77 µM (inactive)
SF-295
  GI50: 9.79 µM (inactive)
RXF 393
  GI50: 1.91 µM (inactive)
K562
  GI50: 2.9 µM (inactive)
OVCAR-3
  GI50: 1.99 µM (inactive)
NCI/ADR-RES
  GI50: 2.48 µM (inactive)
KM12
  GI50: 3.85 µM (inactive)
M14
  GI50: 2.28 µM (inactive)
LOX IMVI
  GI50: 1.44 µM (inactive)
CAKI-1
  GI50: 4.53 µM (inactive)
SF-268
  GI50: 1.23 µM (inactive)
HCT-116
  GI50: 2.74 µM (inactive)
Malme-3M
  GI50: 1.91 µM (inactive)
OVCAR-5
  GI50: 10.7 µM (inactive)
HCT-15
  GI50: 2.65 µM
SK-MEL-5
  GI50: 2.82 µM (inactive)
MOLT-4
  GI50: 2.3 µM (inactive)
SNB-19
  GI50: 7.67 µM (inactive)
SK-MEL-2
  GI50: 3.02 µM (inactive)
SR
  GI50: 1.44 µM (inactive)
PC-3
  GI50: 2.5 µM (inactive)
HL-60
  GI50: 2.11 µM (inactive)
U-251
  GI50: 4.33 µM (inactive)
RPMI-8226
  GI50: 1.67 µM (inactive)
SF-539
  GI50: 2.3 µM (inactive)

Source: ChEMBL document CHEMBL1201862, “PubChem BioAssay data set” (2004)
